{"source": "patent US9586056B2", "about": "“Combination therapy for treating cancer and method for treating cancer using a combination therapy” (Haniva LLC, priority 2014, dated 2017)", "type_in_all_cases": "cell-based", "key": {"1205Lu C×43 (C)": {"system": "1205Lu C×43 (C)", "experiment": "Number of viable cells after treatment (FIG. 11)", "details": "normoxia; tirapazamine at 28.5 μM", "method": "(§1) The cell lines shown in FIG. 11 include: 1205Lu plasmid (P), 1205Lu […]), 1205Lu-[…] (T). […] The cells were treated with non-thermal plasma (NTP), tirapazamine at 28.5 μM (TPZ), or the combination (NTP/TPZ). […] (T) but not for 1205Lu plasmid (P). […] Under […], all treatments (NTP, TPZ and NTP/TPZ) cause a decrease in cell number from the original number of cells (6×10^6) to approximately (3×10^6) for all melanoma cell lines. Under hypoxia, TPZ causes a decrease in cell number from the original number of cells (6×10^6) to approximately (1.2-0.6×10^5). Under hypoxia, NTP/TPZ causes a decrease from the original number of cells (6×10^6) to approximately (0.1-0.03×10^5). […] In addition, the target area of the NTP torch dramatically increases under these conditions. The ROS generated by NTP and tirapazamine induces the bystander effect and promotes the spreading of cell death signals well beyond the area of the plasma treatment. Upon treatment for 24 hours with NTP+/- tirapazamine at normal conditions (normoxia) or hypoxic conditions (hypoxia), the combination of NTP+/- tirapazamine enhances cell death under hypoxia. Furthermore, the area in which the plasma torch affects the cells increases only in the cells overexpressing the functional gap junctions."}, "1205Lu plasmid (P)": {"system": "1205Lu plasmid (P)", "experiment": "Number of viable cells after treatment (FIG. 11)", "details": "normoxia; tirapazamine at 28.5 μM", "method": "as §1"}, "1205Lu-T154A (T)": {"system": "1205Lu-T154A (T)", "experiment": "Number of viable cells after treatment (FIG. 11)", "details": "normoxia; tirapazamine at 28.5 μM", "method": "as §1"}, "1205Lu melanoma cells": {"system": "1205Lu melanoma cells", "experiment": "IC50 of tirapazamine for melanoma cells", "details": "Homo sapiens"}, "1205Lu cells": {"system": "1205Lu cells", "experiment": "Photographic assessment of cell death (FIGS. 12 and 13)", "from_the_text": "The broken lines shown in FIGS. 12 and 13 demarcate live cells from dead cells. The portions shown with asterisks represent the dead cells."}, "HIF1α": {"system": "HIF1α", "experiment": "HIF1α expression under hypoxia (FIG. 14)", "source_text": "HIF1α is a transcription factor that enhances transcription of many metastasis related genes. The expression of HIF1α usually increases under hypoxic conditions."}}, "data": [{"smiles": "Nc1n[n+]([O-])c2ccccc2[n+]1[O-]", "note": "[TPZ, 3-Aminobenzo[e][1,2,4]triazine 1,4-dioxide]", "values": [{"measurement": "change in viable cells", "setting": "1205Lu C×43 (C)", "value": "decrease in viable cells"}, {"measurement": "change in viable cells", "setting": "1205Lu plasmid (P)", "value": "decrease in viable cells"}, {"measurement": "change in viable cells", "setting": "1205Lu-T154A (T)", "value": "decrease in viable cells"}, {"measurement": "IC50", "setting": "1205Lu melanoma cells", "value": 28.5, "unit": "µM"}, {"measurement": "cell toxicity (FIG. 13)", "setting": "1205Lu cells; hypoxia", "value": "induces cell toxicity only under hypoxic conditions"}, {"measurement": "effect on cells (FIG. 12)", "setting": "1205Lu cells; normal oxygen conditions", "value": "no effect"}, {"measurement": "expression of HIF1α compared with control", "setting": "HIF1α; cell line C", "value": "decrease"}, {"measurement": "expression of HIF1α compared with control", "setting": "HIF1α; cell line P", "value": "increase"}, {"measurement": "expression of HIF1α compared with control", "setting": "HIF1α; cell line T", "value": "increase"}]}]}
